Earlier results on one molecule are cited in US20220370378A1 (SOCIETE DES PRODUITS NESTLE S.A., priority 2019, published 2022).

The subject of data set [1] is GLUT4 translocation in skeletal muscle cells. Particulars: single-dose administration, compared among three inositol isomers.
For data set [2] the following is noted: humans.

SMILES strings stand for the structures.

Regarding `O[C@H]1[C@H](O)[C@@H](O)[C@H](O)[C@@H](O)[C@@H]1O` [scyllo-inositol, (1r,2r,3r,4r,5r,6r)-Cyclohexane-1,2,3,4,5,6-hexol], in data set [1], the GLUT4 translocation entry is listed as “most efficiently among three inositol isomers”. Besides, the “mean time to reach the maximum level after ingestion” value in data set [2] is given as “about 3.8 h”.
